In patent US4140849A, “Kanamycin C derivatives” (Zaidan Hojin Biseibutsu Kagaku Kenkyu Kai, priority 1977, dated 1979):
In brackets after ≈: the same amount, converted by molar mass. Read-outs that look alike come from different tables or passages of the source.

Assays:
[1] = test system: 6'-acetyltransferase; details: cited from earlier work; for acetylation by a 6'-acetyltransferase: enzyme obtained from aminoglycoside-resistant strains, such as Pseudomonas aeruginosa GN315
[2] = test system: resistant bacteria producing the 2"-nucleotidyltransferase; details: prior compounds; cited from earlier work
[3] = test system: resistant bacteria producing aminoglycoside 3'-phosphotransferase; details: cited from earlier work
[4] = test system: resistant bacteria producing the aminoglycoside 6'-acetyltransferase; details: cited from earlier work
[5] = test system: Escherichia coli JR 66/W677; test: Minimum inhibitory concentration, serial dilution on nutrient agar; format: cell-based; details: read-out: Minimum Inhibitory Concentrations
Protocol: (§1) The minimum inhibitory concentrations (mcg/ml.) of 1-N-(L-4-amino-2-hydroxybutyryl)-kanamycin C (abbreviated as AHB-KC), 1-N-(L-4-amino-2-hydroxybutyryl)-3'-deoxykanamycin C (abbreviated as AHB-DKC) and 1-N-(L-4-amino-2-hydroxybutyryl)-3',4'-dideoxykanamycin C (abbreviated as AHB-DDKC) against various microorganisms were determined according to serial dilution method on nutrient agar medium at 37° C., the estimation being effected after 18 hours incubation. For comparison, the minimum inhibitory concentrations of 1-N-(L-4-amino-2-hydroxybutyryl)-kanamycin A (amikacin) was also determined in the same manner as described above.

[6] = test system: Escherichia coli K-12 ML 1410 R81; test: as above; format: cell-based; details: 18 h, read-out: Minimum Inhibitory Concentrations
Protocol: as §1

[7] = test system: Escherichia coli K-12 ML 1410; test: as above; format: cell-based; details: K12ML1410, 37° C., 18 hours, read-out: Minimum Inhibitory Concentrations
Protocol: as §1

[8] = test system: Escherichia coli K-12 ML 1629; test: as above; format: cell-based; details: K12ML1629, 37° C., 18 hours, read-out: Minimum Inhibitory Concentrations
Protocol: as §1

[9] = test system: Escherichia coli K-12 ML 1630; test: as above; format: cell-based; details: K12ML1630, 37° C., 18 hours, read-out: Minimum Inhibitory Concentrations
Protocol: as §1

[10] = test system: Escherichia coli K-12 R5; test: as above; format: cell-based; details: K12R5, 18 h, read-out: Minimum Inhibitory Concentrations
Protocol: as §1

[11] = test system: Escherichia coli K-12; test: as above; format: cell-based; details: K12, 37° C., 18 hours, read-out: Minimum Inhibitory Concentrations
Protocol: as §1

[12] = test system: Escherichia coli LA 290 R55; test: as above; format: cell-based; details: LA290R55, 18 h, read-out: Minimum Inhibitory Concentrations
Protocol: as §1

[13] = test system: Escherichia coli LA 290 R56; test: as above; format: cell-based; details: LA290R56, 18 h, read-out: Minimum Inhibitory Concentrations
Protocol: as §1

[14] = test system: Escherichia coli LA 290 R64; test: as above; format: cell-based; details: LA290R64, 18 h, read-out: Minimum Inhibitory Concentrations
Protocol: as §1

[15] = test system: Escherichia coli NIHJ; test: as above; format: cell-based; details: 37° C., 18 hours, read-out: Minimum Inhibitory Concentrations
Protocol: as §1

[16] = test system: Escherichia coli W 677; test: as above; format: cell-based; details: W677, 37° C., 18 hours, read-out: Minimum Inhibitory Concentrations
Protocol: as §1

[17] = test system: Klebsiella pneumoniae 22 No. 3038; test: as above; format: cell-based; details: read-out: Minimum Inhibitory Concentrations
Protocol: as §1

[18] = test system: Klebsiella pneumoniae PCI 602; test: as above; format: cell-based; details: PCI602, 37° C., 18 hours, read-out: Minimum Inhibitory Concentrations
Protocol: as §1

[19] = test system: Mycobacterium smegmatis ATCC 607; test: as above; format: cell-based; details: Mycolicibacterium smegmatis, ATCC607, 37° C., 18 hours, read-out: Minimum Inhibitory Concentrations
Protocol: as §1

[20] = test system: Pseudomonas aeruginosa 99; test: as above; format: cell-based; details: 37° C., 18 hours, read-out: Minimum Inhibitory Concentrations
Protocol: as §1

[21] = test system: Pseudomonas aeruginosa A3; test: as above; format: cell-based; details: read-out: Minimum Inhibitory Concentrations
Protocol: as §1

[22] = test system: Pseudomonas aeruginosa GN 315; test: as above; format: cell-based; details: GN315, 37° C., 18 hours, read-out: Minimum Inhibitory Concentrations
Protocol: as §1

[23] = test system: Pseudomonas aeruginosa H 11; test: as above; format: cell-based; details: H11, 37° C., 18 hours, read-out: Minimum Inhibitory Concentrations
Protocol: as §1

[24] = test system: Pseudomonas aeruginosa No. 12; test: as above; format: cell-based; details: read-out: Minimum Inhibitory Concentrations
Protocol: as §1

[25] = test system: Pseudomonas aeruginosa TI-13; test: as above; format: cell-based; details: read-out: Minimum Inhibitory Concentrations
Protocol: as §1

[26] = test system: Staphylococcus aureus FDA 209P; test: as above; format: cell-based; details: FDA209P, 37° C., 18 hours, read-out: Minimum Inhibitory Concentrations
Protocol: as §1

[27] = LD50 upon intravenous injection in mice; details: mouse, in vivo, estimated
[28] = JR66/W677, Escherichia coli JR 66/W677, nutrient agar, 37° C., 18 hours
[29] = Klebsiella pneumoniae 22 No. 3038, nutrient agar, 37° C., 18 hours
[30] = Pseudomonas aeruginosa A3, nutrient agar, 37° C., 18 hours
[31] = Pseudomonas aeruginosa No. 12, nutrient agar, 37° C., 18 hours
[32] = TI13, Pseudomonas aeruginosa TI-13, nutrient agar, 37° C., 18 hours

SMILES	growth inhibition of resistant bacteria producing the 2"-nucleotidyltransferase [2]	MIC [5, 28] [µg/mL]	MIC [6] [µg/mL]	MIC [7] [µg/mL]	MIC [8] [µg/mL]	MIC [9] [µg/mL]	MIC [10] [µg/mL]	MIC [11] [µg/mL]	MIC [12] [µg/mL]	MIC [13] [µg/mL]	MIC [14] [µg/mL]	MIC [15] [µg/mL]	MIC [16] [µg/mL]	MIC [17, 29] [µg/mL]	MIC [18] [µg/mL]	MIC [19] [µg/mL]	MIC [20] [µg/mL]	MIC [22] [µg/mL]	MIC [23] [µg/mL]	MIC [26] [µg/mL]	further results
NC1CC(N)C(OC2OC(CO)C(O)C(N)C2O)C(O)C1OC1OC(CO)C(O)C(O)C1N (stereo not drawn) [kanamycin C]	not able to inhibit the growth	–	–	–	–	–	–	–	–	–	–	–	–	–	–	–	–	–	–	–	inactivation by the 6'-acetyltransferase ([1]; see co-pending applications): cannot be inactivated
NCC1CCC(N)C(OC2C(N)CC(N)C(OC3OC(CO)C(O)C(N)C3O)C2O)O1 (stereo not drawn) [3',4'-dideoxykanamycin B]	do not inhibit the growth	–	–	–	–	–	–	–	–	–	–	–	–	–	–	–	–	–	–	–	activity against resistant bacteria producing aminoglycoside 3'-phosphotransferase [3]: active against the resistant bacteria; growth inhibition of resistant bacteria producing the aminoglycoside 6'-acetyltransferase [4]: do not inhibit the growth
NCCC(O)C(=O)NC1CC(N)C(OC2OC(CO)C(O)CC2N)C(O)C1OC1OC(CO)C(O)C(N)C1O [AHB-DKC, 1-N-(L-4-amino-2-hydroxybutyryl)-3'-deoxykanamycin C]	–	12.5 (≈ 21.9 µM)	12.5 (≈ 21.9 µM)	6.25 (≈ 11 µM)	6.25 (≈ 11 µM)	12.5 (≈ 21.9 µM)	6.25 (≈ 11 µM)	6.25 (≈ 11 µM)	12.5 (≈ 21.9 µM)	6.25 (≈ 11 µM)	3.13 (≈ 5.49 µM)	6.25 (≈ 11 µM)	6.25 (≈ 11 µM)	6.25 (≈ 11 µM)	3.13 (≈ 5.49 µM)	12.5 (≈ 21.9 µM)	100 (≈ 176 µM)	50 (≈ 87.8 µM)	50 (≈ 87.8 µM)	6.25 (≈ 11 µM)	MIC [21, 30]: 6.25 µg/mL (≈ 11 µM); MIC [24, 31]: 50 µg/mL (≈ 87.8 µM); MIC [25, 32]: 50 µg/mL (≈ 87.8 µM); LD50 [27]: > 400 mg/kg
NC1CCC(CO)OC1OC1C(N)CC(N)C(OC2OC(CO)C(O)C(N)C2O)C1O (stereo not drawn) [3',4 '-dideoxykanamycin C, 3',4'-dideoxykanamycin C]	not able to inhibit the growth	–	–	–	–	–	–	–	–	–	–	–	–	–	–	–	–	–	–	–	–
NCC1OC(OC2C(N)CC(N)C(OC3OC(CO)C(O)C(N)C3O)C2O)C(N)CC1O (stereo not drawn) [3'-deoxykanamycin B]	do not inhibit the growth	–	–	–	–	–	–	–	–	–	–	–	–	–	–	–	–	–	–	–	activity against resistant bacteria producing aminoglycoside 3'-phosphotransferase [3]: active against the resistant bacteria; growth inhibition of resistant bacteria producing the aminoglycoside 6'-acetyltransferase [4]: do not inhibit the growth
NC1CC(O)C(CO)OC1OC1C(N)CC(N)C(OC2OC(CO)C(O)C(N)C2O)C1O (stereo not drawn) [3'-deoxykanamycin C]	not able to inhibit the growth	–	–	–	–	–	–	–	–	–	–	–	–	–	–	–	–	–	–	–	–
NCCC(O)C(=O)NC1CC(N)C(OC2OC(CN)C(O)C(O)C2N)C(O)C1OC1OC(CO)C(O)C(N)C1O [1-N-(L-4-amino-2-hydroxybutyryl)-kanamycin B]	–	–	–	–	–	–	–	–	–	–	–	–	–	–	–	–	–	–	–	–	acetylation by a 6'-acetyltransferase [1]: acetylated
NCCC(O)C(=O)NC1CC(N)C(OC2OC(CO)CCC2N)C(O)C1OC1OC(CO)C(O)C(N)C1O [AHB-DDKC, 1-N-(L-4-amino-2-hydroxybutyryl)-3',4'-dideoxykanamycin C]	–	25 (≈ 45.2 µM)	25 (≈ 45.2 µM)	25 (≈ 45.2 µM)	6.25 (≈ 11.3 µM)	12.5 (≈ 22.6 µM)	12.5 (≈ 22.6 µM)	12.5 (≈ 22.6 µM)	12.5 (≈ 22.6 µM)	6.25 (≈ 11.3 µM)	12.5 (≈ 22.6 µM)	12.5 (≈ 22.6 µM)	12.5 (≈ 22.6 µM)	25 (≈ 45.2 µM)	6.25 (≈ 11.3 µM)	6.25 (≈ 11.3 µM)	100 (≈ 181 µM)	100 (≈ 181 µM)	100 (≈ 181 µM)	12.5 (≈ 22.6 µM)	MIC [21, 30]: 12.5 µg/mL (≈ 22.6 µM); MIC [24, 31]: 100 µg/mL (≈ 181 µM); MIC [25, 32]: 100 µg/mL (≈ 181 µM)
NCC[C@H](O)C(=O)N[C@@H]1C[C@H](N)[C@@H](O[C@H]2O[C@H](CN)[C@@H](O)[C@H](O)[C@H]2O)[C@H](O)[C@H]1O[C@H]1O[C@H](CO)[C@@H](O)[C@H](N)[C@H]1O [Amikacin, 1-N-(L-4-amino-2-hydroxybutyryl)-kanamycin A, reference compound]	–	–	1.56 (≈ 2.66 µM)	0.78 (≈ 1.33 µM)	0.78 (≈ 1.33 µM)	0.78 (≈ 1.33 µM)	0.39 (≈ 0.666 µM)	0.78 (≈ 1.33 µM)	0.78 (≈ 1.33 µM)	0.39 (≈ 0.666 µM)	0.39 (≈ 0.666 µM)	0.78 (≈ 1.33 µM)	< 0.2	–	0.39 (≈ 0.666 µM)	< 0.2	6.25 (≈ 10.7 µM)	100 (≈ 171 µM)	12.5 (≈ 21.3 µM)	0.39 (≈ 0.666 µM)	MIC ([5]; Escherichia coli, JR66/W677, 18 h): 1.56 µg/mL (≈ 2.66 µM); MIC ([17]; Klebsiella pneumoniae, 22NO.3038, 18 h): 1.56 µg/mL (≈ 2.66 µM); MIC ([21]; Pseudomonas aeruginosa, A3, 18 h): 3.13 µg/mL (≈ 5.34 µM); MIC ([24]; Pseudomonas aeruginosa, NO.12, 18 h): 3.13 µg/mL (≈ 5.34 µM); MIC ([25]; Pseudomonas aeruginosa, TI13, 18 h): 3.13 µg/mL (≈ 5.34 µM); acetylation by a 6'-acetyltransferase [1]: acetylated
NCCC(O)C(=O)NC1CC(N)C(OC2OC(CO)C(O)C(O)C2N)C(O)C1OC1OC(CO)C(O)C(N)C1O [AHB-KC, 1-N-(L-4-amino-2-hydroxybutyryl)-kanamycin C]	–	25 (≈ 42.7 µM)	12.5 (≈ 21.3 µM)	25 (≈ 42.7 µM)	6.25 (≈ 10.7 µM)	12.5 (≈ 21.3 µM)	6.25 (≈ 10.7 µM)	12.5 (≈ 21.3 µM)	12.5 (≈ 21.3 µM)	6.25 (≈ 10.7 µM)	12.5 (≈ 21.3 µM)	6.25 (≈ 10.7 µM)	12.5 (≈ 21.3 µM)	12.5 (≈ 21.3 µM)	3.13 (≈ 5.34 µM)	3.13 (≈ 5.34 µM)	100 (≈ 171 µM)	50 (≈ 85.4 µM)	100 (≈ 171 µM)	6.25 (≈ 10.7 µM)	MIC [21, 30]: 12.5 µg/mL (≈ 21.3 µM); MIC [24, 31]: 50 µg/mL (≈ 85.4 µM); MIC [25, 32]: 50 µg/mL (≈ 85.4 µM); LD50 [27]: > 400 mg/kg
